Measurements as given in ChEMBL document CHEMBL5380774, “Fragment-to-Lead Medicinal Chemistry Publications in 2021” (J Med Chem, 2023).
Blank lines part the entries; values can stand above or below the compound they belong to.

How the values were obtained:
[1] = target: T1, Histone-lysine N-methyltransferase ASH1L (Homo sapiens, UniProt Q9NR48); experiment: Inhibition of N-terminal Mocr-tagged ASH1L (2069 to 2288 residues) (unknown origin) expressed in Escherichia coli BL21 (DE3) by […]
[2] = target: YEATS domain-containing protein 4 (Homo sapiens, UniProt O95619); experiment: Inhibition of human N-terminal GST tagged GAS41 (1 to 148 residues) incubated for 1 hr by fluorescence polarization assay
Sequence of YEATS domain-containing protein 4 (O95619 whole entry, the tested form may be a part): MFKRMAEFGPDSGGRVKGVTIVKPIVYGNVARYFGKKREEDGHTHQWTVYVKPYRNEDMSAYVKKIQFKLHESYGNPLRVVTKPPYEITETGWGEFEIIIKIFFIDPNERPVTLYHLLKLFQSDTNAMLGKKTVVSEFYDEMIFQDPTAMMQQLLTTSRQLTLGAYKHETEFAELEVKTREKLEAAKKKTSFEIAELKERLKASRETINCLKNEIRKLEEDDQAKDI

[3] = target: T2, Muscarinic acetylcholine receptor M1 (Homo sapiens, UniProt P11229); experiment: Agonist activity at human M1 receptor; assay type: functional
T2 sequence (P11229 whole entry): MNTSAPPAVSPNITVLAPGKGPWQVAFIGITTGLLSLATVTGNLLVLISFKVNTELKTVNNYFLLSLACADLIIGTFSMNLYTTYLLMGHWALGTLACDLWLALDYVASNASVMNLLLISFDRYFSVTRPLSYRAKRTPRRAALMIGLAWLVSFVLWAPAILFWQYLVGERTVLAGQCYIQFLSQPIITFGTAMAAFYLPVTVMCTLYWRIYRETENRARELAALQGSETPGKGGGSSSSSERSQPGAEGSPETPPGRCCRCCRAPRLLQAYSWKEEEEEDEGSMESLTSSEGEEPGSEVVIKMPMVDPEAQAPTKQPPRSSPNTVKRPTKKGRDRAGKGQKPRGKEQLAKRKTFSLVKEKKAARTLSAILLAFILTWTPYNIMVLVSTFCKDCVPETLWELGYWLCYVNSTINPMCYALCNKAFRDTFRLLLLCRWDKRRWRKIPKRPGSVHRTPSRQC

[4] = target: T1, Histone-lysine N-methyltransferase ASH1L; experiment: Binding affinity to ASH1L SET domain (2069 to 2288 residues) (unknown origin) assessed as dissociation constant by ITC analysis
Adenosine receptor A1 = target: T3, Adenosine receptor A1 (Homo sapiens, UniProt P30542); experiment: Binding affinity to human A1AR assessed as inhibition constant
T3 sequence (P30542 whole entry): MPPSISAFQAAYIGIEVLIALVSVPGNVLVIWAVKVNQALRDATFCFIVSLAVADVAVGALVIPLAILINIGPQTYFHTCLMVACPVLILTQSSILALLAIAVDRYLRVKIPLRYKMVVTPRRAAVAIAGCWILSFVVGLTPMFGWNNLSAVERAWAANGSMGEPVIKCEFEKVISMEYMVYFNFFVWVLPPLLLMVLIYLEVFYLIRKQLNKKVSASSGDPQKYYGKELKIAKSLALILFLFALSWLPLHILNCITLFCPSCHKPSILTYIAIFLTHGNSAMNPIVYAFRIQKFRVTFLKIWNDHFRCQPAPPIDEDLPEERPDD

[5] = target: Proto-oncogene tyrosine-protein kinase receptor Ret (Homo sapiens, UniProt P07949); experiment: Inhibition of rearranged during transfection kinase (unknown origin)
Sequence of Proto-oncogene tyrosine-protein kinase receptor Ret (P07949 whole entry): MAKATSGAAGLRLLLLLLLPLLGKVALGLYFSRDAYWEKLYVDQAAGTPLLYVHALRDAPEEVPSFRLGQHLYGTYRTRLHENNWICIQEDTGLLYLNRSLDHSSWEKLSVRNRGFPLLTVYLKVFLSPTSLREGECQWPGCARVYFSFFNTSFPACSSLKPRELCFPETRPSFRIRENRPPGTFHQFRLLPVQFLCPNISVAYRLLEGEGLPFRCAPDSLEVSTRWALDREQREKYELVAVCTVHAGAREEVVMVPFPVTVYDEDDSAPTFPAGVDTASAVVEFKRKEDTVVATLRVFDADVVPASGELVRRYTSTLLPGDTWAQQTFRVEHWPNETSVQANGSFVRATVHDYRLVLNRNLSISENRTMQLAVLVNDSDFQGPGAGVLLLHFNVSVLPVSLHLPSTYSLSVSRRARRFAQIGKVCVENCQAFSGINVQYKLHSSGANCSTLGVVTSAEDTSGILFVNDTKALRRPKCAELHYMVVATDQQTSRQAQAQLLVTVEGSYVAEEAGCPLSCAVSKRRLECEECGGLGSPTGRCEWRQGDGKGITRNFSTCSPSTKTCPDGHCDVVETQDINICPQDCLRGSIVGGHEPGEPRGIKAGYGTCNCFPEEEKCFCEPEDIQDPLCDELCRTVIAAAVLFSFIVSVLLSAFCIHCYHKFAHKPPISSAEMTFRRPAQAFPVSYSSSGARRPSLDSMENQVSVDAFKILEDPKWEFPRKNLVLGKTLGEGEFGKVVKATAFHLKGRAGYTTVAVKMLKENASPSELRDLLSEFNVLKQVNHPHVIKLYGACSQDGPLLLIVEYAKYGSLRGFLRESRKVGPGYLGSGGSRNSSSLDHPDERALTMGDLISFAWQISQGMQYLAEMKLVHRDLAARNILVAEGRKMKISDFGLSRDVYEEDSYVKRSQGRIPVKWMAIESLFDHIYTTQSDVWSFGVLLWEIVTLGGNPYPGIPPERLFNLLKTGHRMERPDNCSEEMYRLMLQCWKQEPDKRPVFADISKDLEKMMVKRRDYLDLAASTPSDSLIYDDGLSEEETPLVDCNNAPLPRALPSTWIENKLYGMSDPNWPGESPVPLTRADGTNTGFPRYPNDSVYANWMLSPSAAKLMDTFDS

Structure (SMILES): O=C(Nc1ccc(C(=O)N2CC(c3nc4ccccc4s3)C2)s1)[C@@H]1C[C@@H](OCCCCCO[C@H]2CN[C@H](C(=O)Nc3ccc(C(=O)N4CC(c5nc6ccccc6s5)C4)s3)C2)CN1
IC50 [2]: 0.096 µM

Structure (SMILES): NC(=S)c1cccc(-n2cccc2)c1
Kd [4]: > 1000 µM

Structure (SMILES): CC(=O)Nc1nc2ccccc2s1
Ki (Adenosine receptor A1): 11 µM

Structure (SMILES): Nc1ncnc2[nH]ncc12
IC50 [5]: 9.2 µM

Further lines, results first:

IC50 [1]: 0.79 µM
Structure (SMILES): CN1CC(C(=O)NCc2ccc3c(-c4cccc(C(N)=S)c4)cn(C4CCC(S(=O)(=O)C(F)(F)F)CC4)c3c2)C1 (stereo unspecified)

EC50 [3]: 3.2 µM
Structure (SMILES): CCOC(=O)N1CCC(N2CCC(C(N)=O)CC2)CC1
